*1 amine or outer side, *2 acyl side, *3 side chain or, on linkers, in order; H or OH if unused. Where a SMILES comes first, the peptide text is derived from it. [ ]: non-standard residue; d: D form. The star is where a group is joined. GluureaLys(ε-3-ClBenzyl) = O=C(O)CC[C@H](NC(=O)N[C@@H](CCCCN(Cc1cccc(Cl)c1)*)C(=O)O)C(=O)O; Dolaproine = CO[C@@H]([C@@H]1CCCN1)[C@@H](C)C(=O)O; Dil = CC[C@H](C)[C@H](NC)[C@@H](CC(=O)O)OC; X2 = O=C(CCCc1cn(CCCN[*:1])nn1)[*:2]; PABC = O=C(OCc1ccc(N[*:1])cc1)[*:2]; X1 = C[C@@H](N*)[C@@H](O)c1ccccc1; Cit = NC(=O)NCCC[C@H](N)C(=O)O; Suc = O=C(CCC(=O)[*:2])[*:1]; NMeV = CN[C@H](C(=O)O)C(C)C; Ahx = NCCCCCC(=O)O
Assays:
PC-3 cells = assay: In vitro cytotoxicity, MTS assay, PC-3; assay type: cell-based, human; details: 72 h, extremely low PSMA expression, range 0.5 to 800 nM, triplicates
Procedure: (§1) The resulting bimodal conjugates were tested in vitro on three different PCa cell lines. We used LNCaP cells with high PSMA expression, 22Rv1 cells with moderate PSMA expression and PC-3 cells with extremely low PSMA expression. Different levels of PSMA expression in 22Rv1 and LNCaP cell lines allows evaluation of the effect of the level of expression on the toxicity of the target drugs. PSMA-negative cell line PC-3 allows a qualitative assessment of non-specific toxicity of the obtained compounds.
(§2) The cytotoxicity of the investigated substances was tested using the MTS assay with some modifications. Cells were seeded in the 96-well plates (Corning, New York, NY, USA) at concentration of 7000 cells per well for PC-3 culture, 12,000 cells per well for LNCaP cells and 20,000 cells per well for 22Rv1 line. The cells were counted using the automatic cell counter EVE. All cell lines were purchased from the American Type Culture Collection (ATCC, Manassas, VA, USA). After 1 day, serial dilutions of tested substances were added to the cells. Cell culture medium with addition of DMSO in appropriate concentrations was used as a negative control. DMSO (30%) was added in culture medium as a positive control. Cells were then incubated during 72 h at 37 °C and 5% CO2. Later, the culture medium from each well was removed and 20 μL of MTS reagent (CellTiter 96 AQueous Non-Radioactive Cell Proliferation Assay, Promega) were added to each well with 100 μL of new culture medium. After 4 h incubation at 37 °C in darkness, the absorbance of the solution was measured at 490 nm wavelength using Thermo Scientific Multiskan GO spectrometer. Cell viability was calculated as a percentage compared to control cells. The absorbance of MTS reagent in culture medium without cells was taken as zero. […] Experiments were performed in triplicates. Data were analyzed using Prism 9—GraphPad version 9.2.0 software. p values < 0.05 were considered significant.

22Rv1 cells = assay: In vitro cytotoxicity, MTS assay, 22Rv1; assay type: cell-based, human; details: 72 h, moderate PSMA expression, range 0.5 to 800 nM, triplicates
Procedure: as §1, §2

LNCaP cells = assay: In vitro cytotoxicity, MTS assay, LNCaP; assay type: cell-based; details: 72 h, high PSMA expression, range 0.5 to 800 nM, triplicates
Procedure: as §1, §2

SMILES | CC50, PC-3 (PC-3 cells) [nM] | CC50, 22Rv1 (22Rv1 cells) [nM] | CC50, LNCaP (LNCaP cells) [nM]
CC[C@H](C)[C@@H]([C@@H](CC(=O)N1CCC[C@H]1[C@H](OC)[C@@H](C)C(=O)N[C@H](C)[C@@H](O)c1ccccc1)OC)N(C)C(=O)[C@@H](NC(=O)[C@H](C(C)C)N(C)C(=O)OCc1ccc(NC(=O)[C@H](CCCNC(N)=O)NC(=O)[C@@H](NC(=O)CCCc2cn(CCCNC(=O)[C@H](Cc3ccc(O)cc3)NC(=O)[C@H](Cc3ccccc3)NC(=O)CCC(=O)NCCCCCC(=O)N(CCCC[C@H](NC(=O)N[C@@H](CCC(=O)O)C(=O)O)C(=O)O)Cc3cccc(Cl)c3)nn2)C(C)C)cc1)C(C)C [I, reference compound] ({GluureaLys(ε-3-ClBenzyl)-Ahx-Suc}-FY[X2]V[Cit][PABC][NMeV]V[Dil][Dolaproine]-X1) | >800 | 78.5 ± 0.8 | 77.7 ± 1.3
CC[C@H](C)[C@@H]([C@@H](CC(=O)N1CCC[C@H]1[C@H](OC)[C@@H](C)C(=O)N[C@H](C)[C@@H](O)c1ccccc1)OC)N(C)C(=O)[C@@H](NC(=O)[C@@H](NC)C(C)C)C(C)C [MMAE, Monomethyl Auristatin E, reference compound] (H-[NMeV]V[Dil][Dolaproine]-X1) | >800 | 0.42 ± 0.2 | 0.69 ± 0.1

— article PMC10380083, “Synthesis of Prostate-Specific Membrane Antigen-Targeted Bimodal Conjugates of Cytotoxic Agents and Antiandrogens and Their Comparative Assessment with Monoconjugates” (International Journal of Molecular Sciences, 2023)
